Assay results published in patent publication US12570988B2, “Aptamers that bind thiamine analogs and derivatives” (MeiraGTx Gene Regulation Limited, priority 2020, dated 2026).

How the values were obtained:
riboswitch 15D10 [1] = assay: Luciferase reporter with 15D10 riboswitch (Luci-15D10) in HEK 293 cells; type: cell-based, human; details: Homo sapiens, HEK293, 24 h, 50 μM; HEK 293 cells; Table 2; read-out: Fold increase in riboswitch 15D10-regulated luciferase expression, HEK
Procedure: Transfection: 3.5×10^4 human embryonic kidney (HEK) 293 cells were plated in a 96-well flat bottom plate the day before transfection. Plasmid DNA (500 ng) was added to a tube or a 96-well U-bottom plate. […] Then, 50 μL of this diluted transfection reagent was added to the DNA, mixed, and incubated at RT for 20 min. Finally, 7 μL of this solution was added to a well of cells in the 96-well plate. Four hours after transfection, medium containing transfection solution was replaced by medium containing either TPP, fursultiamine, prosultiamine, bisbentiamine, beclotiamine hydrochloride, or sulbutiamine as aptamer inducers.
Firefly luciferase assay of cultured cells: Twenty-four hours after media change, plates were removed from the incubator, and equilibrated to RT for several minutes on a lab bench, then aspirated. Glo-lysis buffer (Promega, 100 μL, RT) was added, and the plates allowed to remain at RT for at least 5 minutes. Then, the well contents were mixed by 50 μL trituration, and 20 μL of each sample was mixed with 20 μL of bright-glo reagent (Promega) that had been diluted to 10% in glo-lysis buffer. 96 wells were spaced on an opaque white 384-well plate. Following a 5 min incubation at RT, luminescence was measured using a Tecan machine with 500 ms read time. The luciferase activity was expressed as mean arbitrary light units (ALU)±S.D., and fold induction was calculated as the quotient of the luciferase activity obtained from cells with TPP or analog treatment divided by the luciferase activity obtained from cells without TPP or analog treatment.

riboswitch 15D10 [2] = assay: Luciferase reporter with 15D10 riboswitch (Luci-15D10) in AML12 cells; type: cell-based, mouse; details: Mus musculus, AML12, 24 h, 50 μM; AML12 cells; Table 2; read-out: Fold increase in riboswitch 15D10-regulated luciferase expression, AML

C/C(=C(\CCO)SC(=O)C(C)c1ccccc1)N(C=O)Cc1cnc(C)nc1N (stereo not drawn) [Compound M54, (Z)—S-(2-(N-((4-amino-2-methylpyrimidin-5-yl)methyl)formamido)-5-hydroxypent-2-en-3-yl) 2-phenylpropanethioate]
fold induction at 50 µM (riboswitch 15D10 [1]): 3
fold induction at 50 µM (riboswitch 15D10 [2]): 13.9

C/C(=C(\CCO)SC(=O)C(C)(C)Cc1ccccc1)N(C=O)Cc1cnc(C)nc1N [Compound M55, (Z)—S-(2-(N-((4-amino-2-methylpyrimidin-5-yl)methyl)formamido)-5-hydroxypent-2-en-3-yl) 2,2-dimethyl-3-phenylpropanethioate]
fold induction at 50 µM (riboswitch 15D10 [1]): 2.1
fold induction at 50 µM (riboswitch 15D10 [2]): 9

C/C(=C(\CCO)SC(=O)C1(C)CCCCC1)N(C=O)Cc1cnc(C)nc1N [Compound M57, (Z)—S-(2-(N-((4-amino-2-methylpyrimidin-5-yl)methyl)formamido)-5-hydroxypent-2-en-3-yl) 1-methylcyclohexane-1-carbothioate]
fold induction at 50 µM (riboswitch 15D10 [1]): 1.2
fold induction at 50 µM (riboswitch 15D10 [2]): 24.4

C/C(=C(\CCO)SC(=O)C(C)(c1ccccc1)c1ccccc1)N(C=O)Cc1cnc(C)nc1N [Compound M58, (Z)—S-(2-(N-((4-amino-2-methylpyrimidin-5-yl)methyl)formamido)-5-hydroxypent-2-en-3-yl) 2,2-diphenylpropanethioate]
fold induction at 50 µM (riboswitch 15D10 [1]): 1.1
fold induction at 50 µM (riboswitch 15D10 [2]): 1.5

C/C(=C(\CCO)SC(=O)C(c1ccccc1)C(C)C)N(C=O)Cc1cnc(C)nc1N (stereo not drawn) [Compound M59, (Z)—S-(2-(N-((4-amino-2-methylpyrimidin-5-yl)methyl)formamido)-5-hydroxypent-2-en-3-yl) 3-methyl-2-phenylbutanethioate]
fold induction at 50 µM (riboswitch 15D10 [1]): 1.1
fold induction at 50 µM (riboswitch 15D10 [2]): 1

C/C(=C(\CCO)SC(=O)C1(C)Cc2ccccc2C1)N(C=O)Cc1cnc(C)nc1N [Compound M62, (Z)—S-(2-(N-((4-amino-2-methylpyrimidin-5-yl)methyl)formamido)-5-hydroxypent-2-en-3-yl) 2-methyl-2,3-dihydro-1H-indene-2-carbothioate]
fold induction at 50 µM (riboswitch 15D10 [1]): 49
fold induction at 50 µM (riboswitch 15D10 [2]): 110

C/C(=C(\CCO)SC(=O)C(C)(C)c1ccc2ccccc2c1)N(C=O)Cc1cnc(C)nc1N [Compound M63, (Z)—S-(2-(N-((4-amino-2-methylpyrimidin-5-yl)methyl)formamido)-5-hydroxypent-2-en-3-yl) 2-methyl-2-(naphthalen-2-yl)propanethioate]
fold induction at 50 µM (riboswitch 15D10 [1]): 1.7
fold induction at 50 µM (riboswitch 15D10 [2]): 19

C/C(=C(\CCO)SC(=O)C(c1ccccc1)c1ccccc1)N(C=O)Cc1cnc(C)nc1N [Compound M64, (Z)—S-(2-(N-((4-amino-2-methylpyrimidin-5-yl)methyl)formamido)-5-hydroxypent-2-en-3-yl) 2,2-diphenylethanethioate]
fold induction at 50 µM (riboswitch 15D10 [1]): 2
fold induction at 50 µM (riboswitch 15D10 [2]): 3.9

C/C(=C(\CCO)SC(=O)C1(c2cccc(Br)c2)CC1)N(C=O)Cc1cnc(C)nc1N [Compound M65, (Z)—S-(2-(N-((4-amino-2-methylpyrimidin-5-yl)methyl)formamido)-5-hydroxypent-2-en-3-yl) 1-(3-bromophenyl)cyclopropane-1-carbothioate]
fold induction at 50 µM (riboswitch 15D10 [1]): 3.2
fold induction at 50 µM (riboswitch 15D10 [2]): 67.1

C/C(=C(\CCO)SC(=O)c1c(Cl)cc(-c2ccccc2)cc1Cl)N(C=O)Cc1cnc(C)nc1N [Compound M66, (Z)—S-(2-(N-((4-amino-2-methylpyrimidin-5-yl)methyl)formamido)-5-hydroxypent-2-en-3-yl) 3,5-dichloro-[1,1′-biphenyl]-4-carbothioate]
fold induction at 50 µM (riboswitch 15D10 [1]): 1.1
fold induction at 50 µM (riboswitch 15D10 [2]): 0.4

C/C(=C(\CCO)SC(=O)c1c(C)cc(C(C)(C)C)cc1C)N(C=O)Cc1cnc(C)nc1N [Compound M67, (Z)—S-(2-(N-((4-amino-2-methylpyrimidin-5-yl)methyl)formamido)-5-hydroxypent-2-en-3-yl) 4-(tert-butyl)-2,6-dimethylbenzothioate]
fold induction at 50 µM (riboswitch 15D10 [1]): 2.1
fold induction at 50 µM (riboswitch 15D10 [2]): 0.9

C/C(=C(\CCO)SC(=O)c1ccc(-c2ccccc2)cc1Cl)N(C=O)Cc1cnc(C)nc1N [Compound M68, (Z)—S-(2-(N-((4-amino-2-methylpyrimidin-5-yl)methyl)formamido)-5-hydroxypent-2-en-3-yl) 3-chloro-[1,1′-biphenyl]-4-carbothioate]
fold induction at 50 µM (riboswitch 15D10 [1]): 303
fold induction at 50 µM (riboswitch 15D10 [2]): 209

C/C(=C(\CCO)SC(=O)c1cc(C(C)(C)C)cc(C(C)(C)C)c1)N(C=O)Cc1cnc(C)nc1N [Compound M70, (Z)—S-(2-(N-((4-amino-2-methylpyrimidin-5-yl)methyl)formamido)-5-hydroxypent-2-en-3-yl) 3,5-di-tert-butylbenzothioate]
fold induction at 50 µM (riboswitch 15D10 [1]): 51
fold induction at 50 µM (riboswitch 15D10 [2]): 236

C/C(=C(\CCO)SC(=O)c1cccc(-c2ccccc2)c1)N(C=O)Cc1cnc(C)nc1N [Compound M72, (Z)—S-(2-(N-((4-amino-2-methylpyrimidin-5-yl)methyl)formamido)-5-hydroxypent-2-en-3-yl) [1,1′-biphenyl]-3-carbothioate]
fold induction at 50 µM (riboswitch 15D10 [1]): 236
fold induction at 50 µM (riboswitch 15D10 [2]): 295

C/C(=C(\CCO)SC(=O)c1ccc(Oc2ccccc2)cc1)N(C=O)Cc1cnc(C)nc1N [Compound M73, (Z)—S-(2-(N-((4-amino-2-methylpyrimidin-5-yl)methyl)formamido)-5-hydroxypent-2-en-3-yl) 4-phenoxybenzothioate]
fold induction at 50 µM (riboswitch 15D10 [1]): 205
fold induction at 50 µM (riboswitch 15D10 [2]): 200

C/C(=C(\CCO)SC(=O)c1ccc2oc3ccccc3c2c1)N(C=O)Cc1cnc(C)nc1N [Compound M76, (Z)—S-(2-(N-((4-amino-2-methylpyrimidin-5-yl)methyl)formamido)-5-hydroxypent-2-en-3-yl) dibenzo[b,d]furan-2-carbothioate]
fold induction at 50 µM (riboswitch 15D10 [1]): 60.7
fold induction at 50 µM (riboswitch 15D10 [2]): 134

C/C(=C(\CCO)SC(=O)c1ccc2sccc2c1)N(C=O)Cc1cnc(C)nc1N [Compound M79, (Z)—S-(2-(N-((4-amino-2-methylpyrimidin-5-yl)methyl)formamido)-5-hydroxypent-2-en-3-yl) benzo[b]thiophene-5-carbothioate]
fold induction at 50 µM (riboswitch 15D10 [1]): 353
fold induction at 50 µM (riboswitch 15D10 [2]): 358

COCCOc1ccc(C(=O)S/C(CCO)=C(/C)N(C=O)Cc2cnc(C)nc2N)cc1 [Compound M82, (Z)—S-(2-(N-((4-amino-2-methylpyrimidin-5-yl)methyl)formamido)-5-hydroxypent-2-en-3-yl) 4-(2-methoxyethoxy)benzothioate]
fold induction at 50 µM (riboswitch 15D10 [1]): 89.2
fold induction at 50 µM (riboswitch 15D10 [2]): 73.9

C/C(=C(\CCO)SC(=O)/C=C/c1ccc2ccccc2c1)N(C=O)Cc1cnc(C)nc1N [Compound M88, S—((Z)-2-(N-((4-amino-2-methylpyrimidin-5-yl)methyl)formamido)-5-hydroxypent-2-en-3-yl) (E)-3-(naphthalen-2-yl)prop-2-enethioate]
fold induction at 50 µM (riboswitch 15D10 [1]): 216
fold induction at 50 µM (riboswitch 15D10 [2]): 355

C/C(=C(\CCO)SCOC(=O)c1cccc2ccccc12)N(C=O)Cc1cnc(C)nc1N [Compound M97, (Z)-((2-(N-((4-amino-2-methylpyrimidin-5-yl)methyl)formamido)-5-hydroxypent-2-en-3-yl)thio)methyl 1-naphthoate]
fold induction at 50 µM (riboswitch 15D10 [1]): 299
fold induction at 50 µM (riboswitch 15D10 [2]): 126

C/C(=C(\CCO)SCOC(=O)c1cc2ccccc2c2ccccc12)N(C=O)Cc1cnc(C)nc1N [Compound M98, (Z)-((2-(N-((4-amino-2-methylpyrimidin-5-yl)methyl)formamido)-5-hydroxypent-2-en-3-yl)thio)methyl phenanthrene-9-carboxylate]
fold induction at 50 µM (riboswitch 15D10 [1]): 13.6
fold induction at 50 µM (riboswitch 15D10 [2]): 57.7

C/C(=C(\CCO)SCOC(=O)c1ccc2c(c1)C(C)(C)CCC2(C)C)N(C=O)Cc1cnc(C)nc1N [Compound M99, (Z)-((2-(N-((4-amino-2-methylpyrimidin-5-yl)methyl)formamido)-5-hydroxypent-2-en-3-yl)thio)methyl 5,5,8,8-tetramethyl-5,6,7,8-tetrahydronaphthalene-2-carboxylate]
fold induction at 50 µM (riboswitch 15D10 [1]): 0.2
fold induction at 50 µM (riboswitch 15D10 [2]): 0.4

CCOc1ccc2ccccc2c1C(=O)OCS/C(CCO)=C(/C)N(C=O)Cc1cnc(C)nc1N [Compound M100, (Z)-((2-(N-((4-amino-2-methylpyrimidin-5-yl)methyl)formamido)-5-hydroxypent-2-en-3-yl)thio)methyl 2-ethoxy-1-naphthoate]
fold induction at 50 µM (riboswitch 15D10 [1]): 1.1
fold induction at 50 µM (riboswitch 15D10 [2]): 0.4

C/C(=C(\CCO)SCOC(=O)C(C)(C)Cc1ccc2ccccc2c1)N(C=O)Cc1cnc(C)nc1N [Compound M101, (Z)-((2-(N-((4-amino-2-methylpyrimidin-5-yl)methyl)formamido)-5-hydroxypent-2-en-3-yl)thio)methyl 2,2-dimethyl-3-(naphthalen-2-yl)propanoate]
fold induction at 50 µM (riboswitch 15D10 [1]): 88.6
fold induction at 50 µM (riboswitch 15D10 [2]): 128

C/C(=C(\CCO)SCOC(=O)C(C)(c1ccccc1)c1ccccc1)N(C=O)Cc1cnc(C)nc1N [Compound M103, (Z)-((2-(N-((4-amino-2-methylpyrimidin-5-yl)methyl)formamido)-5-hydroxypent-2-en-3-yl)thio)methyl 2,2-diphenylpropanoate]
fold induction at 50 µM (riboswitch 15D10 [1]): 0.9
fold induction at 50 µM (riboswitch 15D10 [2]): 0.5
